Experimental data taken from patent publication US20230114728A1 (Venatorx Pharmaceuticals, Inc., priority 2019, published 2023).

Tests used:
[1] = target: T1, E. coli K12 PBP2 (Escherichia coli, UniProt P0AD65); experiment: Bocillin-FL fluorescence polarization competition binding assay, E. coli PBP2
T1 construct: made in house
Description: Example I: Experimental Method for Penicillin-Binding Protein Binding Assays with Bocillin-FL Via Fluorescence Polarization
To determine the ability of boronic acid-based test PBP inhibitors to bind Penicillin Binding Proteins (PBPs), Bocillin-FL (fluorescently-labeled penicillin V; ThermoFisher Scientific) was used in a fluorescence polarization (FP) competition binding assay to assess inhibitor binding to PBP2, PBP3 or PBP4 from Escherichia coli (K12), PBP3 from Pseudomonas aeruginosa (PA01), PBP1a, PBP2 and PBP3 from Acinetobacter baumannii (ATCC 19606), and PBP2 from Neiserria gonorrheae (FA19). PBPs were cloned and purified as described previously (E. coli PBPs, King, D. T, et al., ACS Infectious Diseases 2015, 1, 175-184; P. aeruginosa PBP3, Han et. al., PNAS 2010, 107 (51), 22002-22007; A. baumannii PBPs, Penwell et. al., Antimicrob. Agents Chemother. 2015, 59 (3), 1680-1689; N. gonorrhoeae PBP2, Singh et. al., J Biol. Chem. 2019, 294 (38), 14020-14032). To establish assay conditions for competition binding, enzyme titration/saturation binding experiments were initially performed. Bocillin-FL was prepared at 0.2 μM in a buffer comprised of 50 mM Hepes (pH 8.0), 300 mM NaCl and 5% (v/v) glycerol for reactions with E. coli, P. aeruginosa and N. gonorrhoeae PBPs, and 25 mM Tris (pH 8.0), 200 mM NaCl and 10% (v/v) glycerol and 0.005% (v/v) Tween 20 for reactions with A. baumannii PBPs. Saturation binding was performed by mixing 40 μl of PBP solutions ranging in concentrations from 0-24 μM with 40 μl of the 0.2 μM Bocillin-FL solution, in individual wells of a black 384-well microplate. FP was measured immediately upon mixing (Excitation, 490 nm; Emission, 520 nm; g-factor, 0.96), using a Cytation3 (BioTek) microplate reader and measured continuously for up to 120 minutes. […] Bocillin-FL was added and the FP immediately measured for up to 60 minutes (90 minutes for E. coli PBP2). […]

[2] = system: P. aeruginosa PAO1; experiment: Broth microdilution MIC in CAMHB; type: cell-based; conditions: Pseudomonas aeruginosa, MHB, read-out: Minimum Inhibitory Concentration, P. aeruginosa PAO1
Description: To determine the ability of test compounds to inhibit the growth of bacterial strains, classic cell based broth microdilution minimum inhibitory concentration (MIC) assays were employed. MIC assays are performed according to CLSI methods except where otherwise noted (CLSI, 2018 and CLSI, 2019). The reference type strain E. coli ATCC 25922; the wild-type parent strain E. coli AG100; the hyper-permeable E. coli 901C and E. coli D22; and the E. coli AG100A strain lacking the acrAB efflux pump encoding genes were used to determine the ability of the PBP inhibitors to penetrate the outer membrane of gram-negative bacteria and inhibit bacterial growth. […] The P. aeruginosa ATCC 27853 and A. baumannii ATCC 19606, along with the hyper-permeable P. aeruginosa ATCC 35151 and an engineered efflux pump-compromised strain of P. aeruginosa (ΔmexAB-oprM) were used to determine the ability of PBP inhibitors to penetrate the outer membrane of P. aeruginosa and A. baumannii and assess antibacterial activity against these important gram-negative organisms.
Briefly, cryo-preserved bacterial cultures of challenge strains are streaked for isolation on appropriate agar medium, in this case cation-adjusted Mueller Hinton agar. Following incubation to allow growth of the colonies, plates are sealed with parafilm and stored refrigerated for up to two weeks. For preparation of assay inoculum and to ensure low variability, at least 5 colonies are picked from the agar plates with an inoculating loop and aseptically transferred to a culture tube containing 3 mL of cation-adjusted Mueller Hinton broth (CAMHB). The broth culture is grown for 3-5 hours at 37° C. with shaking at 200 rpm. Meanwhile, 2-fold serial dilutions of test compounds are conducted in a 96-well plate with a final volume of 75 μL per well at 2-fold the final desired concentration. After the dilution plates are set up the growing cultures are then diluted in a cuvette containing CAMHB and the optical density is measured at 600 nm. The inoculum is diluted such that 75 μL of this culture in CAMHB results in a starting bacterial concentration of 2-8×10^5 CFU/mL when added to the dilution plates. The plates are incubated for 16-20 hours for Enterobacteriaceae and Pseudomonas and 20-24 hours for Acinetobacter at 37° C. The MIC values are read visually as the lowest concentration well with no bacterial growth.

T1 sequence (P0AD65 whole entry): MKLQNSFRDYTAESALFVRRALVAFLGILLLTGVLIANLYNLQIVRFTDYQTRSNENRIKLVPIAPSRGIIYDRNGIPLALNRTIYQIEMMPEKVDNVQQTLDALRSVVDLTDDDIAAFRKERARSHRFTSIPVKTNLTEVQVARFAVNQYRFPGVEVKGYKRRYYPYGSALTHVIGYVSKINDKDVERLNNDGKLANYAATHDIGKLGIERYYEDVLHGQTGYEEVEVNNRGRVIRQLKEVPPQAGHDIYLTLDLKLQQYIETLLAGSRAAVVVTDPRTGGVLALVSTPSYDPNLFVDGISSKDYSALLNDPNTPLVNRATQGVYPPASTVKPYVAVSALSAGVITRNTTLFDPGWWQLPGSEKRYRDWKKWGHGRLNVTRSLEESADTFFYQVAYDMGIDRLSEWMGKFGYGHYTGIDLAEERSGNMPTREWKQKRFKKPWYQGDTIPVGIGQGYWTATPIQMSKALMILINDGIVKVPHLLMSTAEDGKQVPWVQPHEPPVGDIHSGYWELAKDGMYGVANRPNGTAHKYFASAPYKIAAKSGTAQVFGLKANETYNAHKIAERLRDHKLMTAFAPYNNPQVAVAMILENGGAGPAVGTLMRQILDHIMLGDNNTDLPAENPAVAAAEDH

Row | SMILES | EC50 [1] | MIC [2]
1 | CCN1CCN(C(=O)NC(C(=O)N[C@H]2Cc3ccc(S)c(C(=O)O)c3OB2O)c2csc(N)n2)C(=O)C1=O (stereo partly drawn) [Example 54, (3R)-3-(2-(2-aminothiazol-4-yl)-2-(4-ethyl-2,3-dioxopiperazine-1-carboxamido)acetamido)-2-hydroxy-7-mercapto-3,4-dihydro-2H-benzo[e][1,2]oxaborinine-8-carboxylic acid] | 30 to 500 µM | 
2 | CCN1CCN(C(=O)NC(C(=O)N[C@H]2Cc3ccc(SCc4ccc(O)cc4)c(C(=O)O)c3OB2O)c2csc(N)n2)C(=O)C1=O (stereo partly drawn) [Example 55, (3R)-3-(2-(2-aminothiazol-4-yl)-2-(4-ethyl-2,3-dioxopiperazine-1-carboxamido)acetamido)-2-hydroxy-7-((4-hydroxybenzyl)thio)-3,4-dihydro-2H-benzo[e][1,2]oxaborinine-8-carboxylic acid] | 30 to 500 µM | > 128 µg/mL
3 | CCN1CCN(C(=O)NC(C(=O)N[C@H]2Cc3ccc(C=O)c(C(=O)O)c3OB2O)c2csc(N)n2)C(=O)C1=O (stereo partly drawn) [Example 57, (3R)-3-(2-(2-aminothiazol-4-yl)-2-(4-ethyl-2,3-dioxopiperazine-1-carboxamido)acetamido)-7-formyl-2-hydroxy-3,4-dihydro-2H-benzo[e][1,2]oxaborinine-8-carboxylic acid] |  | > 128 µg/mL
4 | CCN1CCN(C(=O)NC(C(=O)N[C@H]2Cc3ccc(CO)c(C(=O)O)c3OB2O)c2csc(N)n2)C(O)C1=O (stereo partly drawn) [Example 58, (3R)-3-(2-(2-aminothiazol-4-yl)-2-(4-ethyl-2-hydroxy-3-oxopiperazine-1-carboxamido)acetamido)-2-hydroxy-7-(hydroxymethyl)-3,4-dihydro-2H-benzo[el][1,2]oxaborinine-8-carboxylic acid] |  | > 128 µg/mL
5 | CCN1CCN(C(=O)NC(C(=O)N[C@H]2Cc3ccc(O[C@@H]4CN[C@H](C(=O)N(C)C)C4)c(C(=O)O)c3OB2O)c2ccccc2)C(=O)C1=O (stereo partly drawn) [Example 59, (3R)-7-(((3S,5S)-5-(dimethylcarbamoyl)pyrrolidin-3-yl)oxy)-3-(2-(4-ethyl-2,3-dioxopiperazine-1-carboxamido)-2-phenylacetamido)-2-hydroxy-3,4-dihydro-2H-benzo[e][1,2]oxaborinine-8-carboxylic acid] |  | > 128 µg/mL
6 | CCN1CCN(C(=O)NC(C(=O)N[C@H]2Cc3ccc(OCCN)c(C(=O)O)c3OB2O)c2ccccc2)C(=O)C1=O (stereo partly drawn) [Example 60, (3R)-7-(2-aminoethoxy)-3-(2-(4-ethyl-2,3-dioxopiperazine-1-carboxamido)-2-phenylacetamido)-2-hydroxy-3,4-dihydro-2H-benzo[e][1,2]oxaborinine-8-carboxylic acid] |  | > 128 µg/mL
